Paper PMC3502340, “Agglutinating Activity and Structural Characterization of Scalarin, the Major Egg Protein of the Snail Pomacea scalaris (d’Orbigny, 1832)” (PLoS ONE, 2012)

System: T1, scalarin (PsSC)
T1 construct: native, purified from newly laid egg clutches (ultracentrifugation, size exclusion); 380 kDa glycosylated carotenoprotein oligomer of 35, 28 and 24 kDa subunits
Assay: inhibition of rabbit erythrocyte hemagglutination (titre)
Type: cell-based, Pomacea scalaris
Settings: 200000 µM, TBS pH 7.4, 37 °C, 1 h preincubation, 2% rabbit erythrocytes
Text: inhibition of rabbit erythrocyte hemagglutination (titre) on scalarin (PsSC)

SMILES: CC(=O)N[C@H]1C(O)O[C@H](CO)[C@H](O)[C@@H]1O (stereo partly drawn) [N-acetyl-D-galactosamine]
- % Inhibition: 50.0%

SMILES: N[C@H]1C(O)O[C@H](CO)[C@H](O)[C@@H]1O (stereo partly drawn) [galactosamine]
- % Inhibition (text prints 99.99%): 99.9%

SMILES: N[C@H]1C(O)O[C@H](CO)[C@@H](O)[C@@H]1O (stereo partly drawn) [glucosamine]
- % Inhibition: 99.6%
